In EP0800516B1, “FIBRINOGEN RECEPTOR ANTAGONISTS HAVING SUBSTITUTED (b)-AMINO ACID RESIDUES AND PHARMACEUTICAL COMPOSITIONS COMPRISING THE SAME” (Nippon Steel Corporation, priority 1994, dated 1996):
pIC50: −log10 of the molar value.

Tested on: Human Platelet Aggregation
Assay: in vitro human platelet aggregation using PRP (collagen-induced, light transmittance)
Format: cell-based
Conditions: aggregation induced with collagen (final concentration: 5 µ g/ml), 37°C
Description: (Measurement of in vitro Human Platelet Aggregation using PRP)
Healthy male volunteers who had not taken any medicines for at least two weeks were selected as subjects. Blood was collected from the forearm vein of each subject on an empty stomach using a #19 needle and a plastic syringe preliminarily charged with 1/10 volume of a 3.8% sodium citrate solution. Immediately after the blood collection, the syringe was shaken gently to mix the blood with the sodium citrate solution. The mixed blood was centrifuged (1100 rpm, 250 g) at room temperature for 15 minutes and the rotation was stopped without applying the brake. Then, the supernatant was collected with a Komagome type pipette to obtain platelet-rich plasma (PRP). The PRP was stored at room temperature. The blood remaining after centrifuging was further centrifuged (3500 rpm, 1500 g) at room temperature for 15 minutes and the rotation was stopped without applying the brake. The supernatant was collected to obtain platelet-poor plasma (PPP). After the preparation of the PRP, the number of platelets was counted and only samples containing more than 2 x 10^8 of platelets per milliliter were subjected to the following experiments.
Platelet aggregation was measured using an 8-channel platelet aggregation measuring instrument (Hematracer, Nikoh Bioscience, Tokyo, Japan) on the basis of the change in light transmittance through the PRP. First, the PPP and PRP (each 200µl) were placed in glass cuvettes and incubated at 37°C . Thereafter, the transmittance was measured. The transmittance of the PPP was determined as 100% and that of the PRP as 0%. Then, 10µl of physiological saline or a sample-containing physiological saline was added to the PRP and incubated at 37°C for one minute. A collagen solution (10 µ l) at a concentration of […] was added (final concentration: 5 µ g/ml) to induce aggregation and thereafter the transmittance was measured over 7 minutes. After aggregation with collagen and ADP was confirmed, only those samples in which the maximum aggregation with collagen was at least 70% were subjected to the experiment.
The sample was dissolved in physiological saline to give a concentration of 2.2 x 10 ^-2 M and a 2-fold dilution series was prepared for use in the experiments. The samples insoluble in the physiological saline were dissolved in physiological saline containing 10% DMSO (dimethyl sulfoxide).
The results were calculated as follows: [formula]
A graph was constructed by plotting the percent aggregation inhibition against the sample concentration and the concentration at which the aggregation was inhibited by 50% (IC50) was calculated from the graph.

SMILES	pIC50
CC(CC(=O)N1CCC(CC(=O)O)CC1)NC(=O)c1ccc(C(=N)N)cc1 (stereo not drawn) [Comparative Example 2, N-(N-4-amidinobenzoyl-β-methyl-β -alanyl)-4-piperidineacetic acid, reference compound]	4.30
N=C(N)c1ccc(C(=O)NC(CC(=O)N2CCC(CC(=O)O)CC2)c2ccccc2)cc1 (stereo not drawn) [Comparative Example 3, N-(N-4-amidinobenzoyl-β-phenyl-β -alanyl)-4-piperidineacetic acid, reference compound]	5.28
CCC(CNC(=O)c1ccc(C(=N)N)cc1)C(=O)N1CCC(CC(=O)O)CC1 (stereo not drawn) [Comparative Example 4, N-(N-4-amidinobenzoyl-α-ethyl-β -alanyl)-4-piperidineacetic acid, reference compound]	6.05
CCC(C(=O)N1CCC(CC(=O)O)CC1)C(NC(=O)c1ccc(C(=N)N)cc1)c1ccccc1 (stereo not drawn) [Comparative Example 5, N-(N-4-amidinobenzoyl-β-phenyl-α -ethyl-β-alanyl)-4-piperidineacetic acid, reference compound]	4.80
CCC(C(=O)N1CCC(CC(=O)O)CC1)C(/C=C/c1ccccc1)NC(=O)c1ccc(C(=N)N)cc1 (stereo not drawn) [Comparative Example 6, N-(N-4-amidinobenzoyl-β-trans-styryl-α-ethyl-β-alanyl)-4-piperidineacetic acid, reference compound]	4.07
CC(C)C(CNC(=O)c1ccc(C(=N)N)cc1)C(=O)N1CCC(CC(=O)O)CC1 (stereo not drawn) [Comparative Example 7, N-(N-4-amidinobenzoyl-α-isopropyl-β-alanyl)-4-piperidineacetic acid, reference compound]	4.77
CC(C)C(C(=O)N1CCC(CC(=O)O)CC1)C(NC(=O)c1ccc(C(=N)N)cc1)c1ccccc1 (stereo not drawn) [Comparative Example 8, N-(N-4-amidinobenzoyl-β-phenyl-α -isopropyl-β-alanyl)-4-piperidineacetic acid, reference compound]	4.09
CC(C)C(C(=O)N1CCC(CC(=O)O)CC1)C(/C=C/c1ccccc1)NC(=O)c1ccc(C(=N)N)cc1 (stereo not drawn) [Comparative Example 9, N-(N-4-amidinobenzoyl-β-trans-styryl-α-isopropyl-β-alanyl)-4-piperidineacetic acid, reference compound]	4.05
CC(C(=O)N1CCC(CC(=O)O)CC1)C(NC(=O)c1ccc(C(=N)N)cc1)c1ccccc1 (stereo not drawn) [Comparative Example 10, N-(N-4-amidinobenzoyl-β-phenyl-α-methyl-β-alanyl)-4-piperidineacetic acid, reference compound]	4.80
CC(C)(CNC(=O)c1ccc(C(=N)N)cc1)C(=O)N1CCC(CC(=O)O)CC1 [Example 1, N-(N-4-amidinobenzoyl-α,α-dimethyl-β-alanyl)-4-piperidineacetic acid]	6.24
CC(C)(C(=O)N1CCC(CC(=O)O)CC1)C(NC(=O)c1ccc(C(=N)N)cc1)c1ccccc1 (stereo not drawn) [Example 2, N-(N-4-amidinobenzoyl-β-phenyl-α,α-dimethyl-β-alanyl)-4-piperidineacetic acid]	6.72
CCC(NC(=O)c1ccc(C(=N)N)cc1)C(C)(C)C(=O)N1CCC(CC(=O)O)CC1 (stereo not drawn) [Example 3, N-(N-4-Amidinobenzoyl-β-ethyl-α,α-dimethyl-β-alanyl)-4-piperidineacetic acid]	7.08
CCCC(NC(=O)c1ccc(C(=N)N)cc1)C(C)(C)C(=O)N1CCC(CC(=O)O)CC1 (stereo not drawn) [Example 4, N-(N-4-amidinobenzoyl-β-n-propyl-α,α-dimethyl-β-alanyl)-4-piperidineacetic acid]	7.05
CC(C)C(NC(=O)c1ccc(C(=N)N)cc1)C(C)(C)C(=O)N1CCC(CC(=O)O)CC1 (stereo not drawn) [Example 5, N-(N-4-amidinobenzoyl-β-isopropyl-α,α-dimethyl-β-alanyl)-4-piperidineacetic acid]	6.72
CCCCC(NC(=O)c1ccc(C(=N)N)cc1)C(C)(C)C(=O)N1CCC(CC(=O)O)CC1 (stereo not drawn) [Example 6, N-(N-4-amidinobenzoyl-β-normal-butyl-α,α-dimethyl-β-alanyl)-4-piperidineacetic acid]	7.08
CCCCCC(NC(=O)c1ccc(C(=N)N)cc1)C(C)(C)C(=O)N1CCC(CC(=O)O)CC1 (stereo not drawn) [Example 7, N-(N-4-amidinobenzoyl-β-normal-pentyl-α,α -dimethyl-β-alanyl)-4-piperidineacetic acid]	6.77
COc1ccc(C(NC(=O)c2ccc(C(=N)N)cc2)C(C)(C)C(=O)N2CCC(CC(=O)O)CC2)cc1 (stereo not drawn) [Example 8, N-(N-4-amidinobenzoyl-β-p-methoxyphenyl-α, α-dimethyl-β-alanyl)-4-piperidineacetic acid]	6.60
CC(C)(C(=O)N1CCC(CC(=O)O)CC1)C(NC(=O)c1ccc(C(=N)N)cc1)c1cccc(Cl)c1 (stereo not drawn) [Example 9, N-(N-4-amidinobenzoyl-β-m-chlorophenyl-α,α -dimethyl-β-alanyl)-4-piperidineacetic acid]	6.74
CC(C)(C(=O)N1CCC(CC(=O)O)CC1)C(NC(=O)c1ccc(C(=N)N)cc1)c1ccc(F)cc1 (stereo not drawn) [Example 10, N-(N-4-amidinobenzoyl-β-p-fluorophenyl-α, α-dimethyl-β-alanyl)-4-piperidineacetic acid]	6.64
CC(C)(C(=O)N1CCC(CC(=O)O)CC1)C(CCc1ccccc1)NC(=O)c1ccc(C(=N)N)cc1 (stereo not drawn) [Example 11, N-(N-4-amidinobenzoyl-β-phenethyl-α,α-dimethyl-β-alanyl)-4-piperidineacetic acid]	6.80
CC(C)(C(=O)N1CCC(CC(=O)O)CC1)C(CC1CCCCC1)NC(=O)c1ccc(C(=N)N)cc1 (stereo not drawn) [Example 12, N-(N-4-amidinobenzoyl-β-cyclohexylmethyl-α, α-dimethyl-β-alanyl)-4-piperidineacetic acid]	6.77
CC(C)(C(=O)N1CCC(CC(=O)O)CC1)C(NC(=O)c1ccc(C(=N)N)cc1)c1ccoc1 (stereo not drawn) [Example 13, N-(N-4-amidinobenzoyl-β-(3-furyl)-α,α-dimethyl-β-alanyl)-4-piperidineacetic acid]	6.57
CC(C)(C(=O)N1CCC(CC(=O)O)CC1)C(C=Cc1ccccc1)NC(=O)c1ccc(C(=N)N)cc1 (stereo not drawn) [Example 14, N-(N-4-amidinobenzoyl-β-styryl-α,α-dimethyl-β-alanyl)-4-piperidineacetic acid]	6.34
CC(C)(C(=O)N1CCC(CC(=O)O)CC1)C(NC(=O)c1ccc(C(=N)N)cc1)C1CCNCC1 (stereo not drawn) [Example 15, N-(N-4-amidinobenzoyl-β-(4-piperidyl)-α, α-dimethyl-β-alanyl)-4-piperidineacetic acid]	6.74
CC(C)(C(=O)N1CCC(CC(=O)O)CC1)C(NC(=O)c1ccc(C(=N)N)cc1)c1ccc2ccccc2c1 (stereo not drawn) [Example 16, N-(N-4-amidinobenzoyl-β-(2-naphthyl)-α,α -dimethyl-β-alanyl)-4-piperidineacetic acid]	6.48
CC(C)(C(=O)N1CCC(CC(=O)O)CC1)C(NC(=O)c1ccc(C(=N)N)cc1)C1CC1 (stereo not shown) [Example 17]	6.74
CCCCNC(=N)c1ccc(C(=O)NC(c2cccc(Cl)c2)C(C)(C)C(=O)N2CCC(CC(=O)O)CC2)cc1 (stereo not shown) [Example 18]	6.00
CN(C(=O)c1ccc(C(=N)N)cc1)C(c1ccccc1)C(C)(C)C(=O)N1CCC(CC(=O)O)CC1 (stereo not drawn) [Example 21, N-(N-4-amidinobenzoyl-N-methyl-β-phenyl-α, α-dimethyl-β-alanyl)-4-piperidineacetic acid]	6.48
